In ChEMBL document CHEMBL1212763, “Pharmacokinetics and safety of S/GSK1349572, a next-generation HIV integrase inhibitor, in healthy volunteers” (Antimicrob Agents Chemother, 2010):

Legend:
[1] = Drug level at 24 hrs in healthy human at 10 mg administered as single dose suspension; format: ADME, organism-based; settings: in vivo, read-out: Drug uptake
[2] = Drug level at 24 hrs in healthy human at 25 mg administered as single dose suspension; format: ADME, organism-based; settings: in vivo, read-out: Drug uptake
[3] = Drug level at 24 hrs in healthy human at 50 mg administered as single dose suspension; format: ADME, organism-based; settings: in vivo, read-out: Drug uptake
[4] = Drug level at 24 hrs in healthy human at 100 mg administered as single dose suspension; format: ADME, organism-based; settings: in vivo, read-out: Drug uptake
[5] = Cmax in healthy human at 10 mg, qd for 10 days administered as suspension measured after last dose; format: ADME, organism-based; set-up: dose 10 mg; settings: in vivo
[6] = Cmax in healthy human at 25 mg, qd for 10 days administered as suspension measured after last dose; format: ADME, organism-based; set-up: dose 25 mg; settings: in vivo
[7] = Cmax in healthy human at 50 mg, qd for 10 days administered as suspension measured after last dose; format: ADME, organism-based; set-up: dose 50 mg; settings: in vivo
[8] = Tmax in healthy human at 10 mg, qd for 10 days administered as suspension measured after last dose; format: ADME, organism-based; settings: in vivo
[9] = Tmax in healthy human at 25 mg, qd for 10 days administered as suspension measured after last dose; format: ADME, organism-based; settings: in vivo
[10] = Tmax in healthy human at 50 mg, qd for 10 days administered as suspension measured after last dose; format: ADME, organism-based; settings: in vivo
[11] = AUC (0-tau) in healthy human at 10 mg, qd for 10 days administered as suspension measured after last dose; format: ADME, organism-based; settings: plasma
[12] = AUC (0-tau) in healthy human at 25 mg, qd for 10 days administered as suspension measured after last dose; format: ADME, organism-based; settings: plasma
[13] = AUC (0-tau) in healthy human at 50 mg, qd for 10 days administered as suspension measured after last dose; format: ADME, organism-based; settings: plasma
[14] = Drug level in healthy human at 10 mg, qd for 10 days administered as suspension measured after last dose; format: ADME, organism-based; settings: in vivo, read-out: Drug uptake
[15] = Drug level in healthy human at 25 mg, qd for 10 days administered as suspension measured after last dose; format: ADME, organism-based; settings: in vivo, read-out: Drug uptake
[16] = Drug level in healthy human at 50 mg, qd for 10 days administered as suspension measured after last dose; format: ADME, organism-based; settings: in vivo, read-out: Drug uptake
Homo sapiens [17] = experiment: Toxicity in healthy human assessed as incidence of adverse events at 2 to 100 mg administered as single dose suspension; format: organism-based; settings: in vivo
Homo sapiens [18] = experiment: Toxicity in healthy human assessed as incidence of adverse events at 10 to 50 mg, qd for 10 days administered as suspension measured after last dose; format: organism-based; settings: in vivo, 240 h
Homo sapiens [19] = experiment: Toxicity in healthy human assessed as incidence of drug related incidence of somnolence at 2 mg administered as single dose suspension; format: organism-based; settings: in vivo
Homo sapiens [20] = experiment: Toxicity in healthy human assessed as incidence of drug related incidence of somnolence at 5 mg administered as single dose suspension; format: organism-based; settings: in vivo
Homo sapiens [21] = experiment: Toxicity in healthy human assessed as incidence of drug related incidence of head ache at 10 mg administered as single dose suspension; format: organism-based; settings: in vivo
Homo sapiens [22] = experiment: Toxicity in healthy human assessed as incidence of drug related incidence of somnolence at 10 mg administered as single dose suspension; format: organism-based; settings: in vivo
Homo sapiens [23] = experiment: Toxicity in healthy human assessed as incidence of drug related incidence of somnolence at 25 mg administered as single dose suspension; format: organism-based; settings: in vivo
Homo sapiens [24] = experiment: Toxicity in healthy human assessed as incidence of drug related incidence of somnolence at 50 mg administered as single dose suspension; format: organism-based; settings: in vivo
Homo sapiens [25] = experiment: Toxicity in healthy human assessed as incidence of drug related incidence of somnolence at 100 mg administered as single dose suspension; format: organism-based; settings: in vivo
Homo sapiens [26] = experiment: Toxicity in healthy human assessed as incidence of drug related incidence of headache at 10 mg, qd for 10 days administered as suspension measured after last dose; format: organism-based; settings: in vivo, 240 h
Homo sapiens [27] = experiment: Toxicity in healthy human assessed as incidence of drug related incidence of pharyngolaryngeal pain at 10 mg, qd for 10 days administered as suspension measured after last dose; format: organism-based; settings: in vivo, 240 h
Homo sapiens [28] = experiment: Toxicity in healthy human assessed as incidence of drug related incidence of pruritis at 10 mg, qd for 10 days administered as suspension measured after last dose; format: organism-based; settings: in vivo, 240 h
Homo sapiens [29] = experiment: Toxicity in healthy human assessed as incidence of drug related incidence of headache at 25 mg, qd for 10 days administered as suspension measured after last dose; format: organism-based; settings: in vivo, 240 h
Homo sapiens [30] = experiment: Toxicity in healthy human assessed as incidence of drug related incidence of pharyngolaryngeal pain at 25 mg, qd for 10 days administered as suspension measured after last dose; format: organism-based; settings: in vivo, 240 h
Homo sapiens [31] = experiment: Toxicity in healthy human assessed as incidence of drug related incidence of pruritis at 25 mg, qd for 10 days administered as suspension measured after last dose; format: organism-based; settings: in vivo, 240 h
Homo sapiens [32] = experiment: Toxicity in healthy human assessed as incidence of drug related incidence of headache at 50 mg, qd for 10 days administered as suspension measured after last dose; format: organism-based; settings: in vivo, 240 h
Homo sapiens [33] = experiment: Toxicity in healthy human assessed as incidence of drug related incidence of pharyngolaryngeal pain at 50 mg, qd for 10 days administered as suspension measured after last dose; format: organism-based; settings: in vivo, 240 h
Homo sapiens [34] = experiment: Toxicity in healthy human assessed as incidence of drug related incidence of pruritis at 50 mg, qd for 10 days administered as suspension measured after last dose; format: organism-based; settings: in vivo, 240 h
Homo sapiens [35] = experiment: Toxicity in healthy human assessed as incidence of drug related incidence of headache at 25 mg, qd for 10 days administered as suspension measured after last dose coadministered with 3 mg CYP3A4 probe midazolam; format: organism-based; settings: in vivo, 240 h
Homo sapiens [36] = experiment: Toxicity in healthy human assessed as incidence of drug related incidence of pharyngolaryngeal pain at 25 mg, qd for 10 days administered as suspension measured after last dose coadministered with 3 mg CYP3A4 probe midazolam; format: organism-based; settings: in vivo, 240 h
Homo sapiens [37] = experiment: Toxicity in healthy human assessed as incidence of drug related incidence of pruritis at 25 mg, qd for 10 days administered as suspension measured after last dose coadministered with 3 mg CYP3A4 probe midazolam; format: organism-based; settings: in vivo, 240 h
[38] = Cmax in healthy human at 2 mg administered as single dose suspension; format: ADME, organism-based; set-up: dose 2 mg; settings: in vivo

C[C@@H]1CCO[C@H]2Cn3cc(C(=O)NCc4ccc(F)cc4F)c(=O)c([O-])c3C(=O)N12.[Na+] [DOLUTEGRAVIR SODIUM]
concentration at 24 h [1]: 196 ng/mL
concentration at 24 h [2]: 469 ng/mL
concentration at 24 h [3]: 1060 ng/mL
concentration at 24 h [4]: 1800 ng/mL
Cmax [5]: 1470 ng/mL
Cmax [6]: 3090 ng/mL
Cmax [7]: 6160 ng/mL
Tmax [8]: 0.5 h
Tmax [9]: 1 h
Tmax [10]: 1 h
AUC tau at 240 h [11]: 16700 ng·h/mL
AUC tau at 240 h [12]: 38400 ng·h/mL
AUC tau at 240 h [13]: 76800 ng·h/mL
concentration at 240 h [14]: 350 ng/mL
concentration at 240 h [15]: 840 ng/mL
concentration at 240 h [16]: 1640 ng/mL
Activity (Homo sapiens [17]): Non-toxic
Activity (Homo sapiens [18]): Non-toxic
Activity (Homo sapiens [19]): 0%
Activity (Homo sapiens [20]): 0%
Activity (Homo sapiens [21]): 13%
Activity (Homo sapiens [22]): 0%
Activity (Homo sapiens [23]): 0%
Activity (Homo sapiens [24]): 33%
Activity (Homo sapiens [25]): 0%
Activity (Homo sapiens [26]): 0%
Activity (Homo sapiens [27]): 0%
Activity (Homo sapiens [28]): 0%
Activity (Homo sapiens [29]): 0%
Activity (Homo sapiens [30]): 0%
Activity (Homo sapiens [31]): 0%
Activity (Homo sapiens [32]): 22%
Activity (Homo sapiens [33]): 11%
Activity (Homo sapiens [34]): 22%
Activity (Homo sapiens [35]): 0%
Activity (Homo sapiens [36]): 0%
Activity (Homo sapiens [37]): 0%
Cmax [38]: 231 ng/mL
